{
  "source": "patent US9937204B2",
  "about": "(priority 2008, dated 2018)",
  "key": {"[1]": {"tested_on": "Candida species", "assay": "Time-kill assay, all species together", "type": "cell-based", "settings": "chlorhexidine gluconate concentrations tested (0.015-0.12%); within one minute of exposure", "procedure": "Following exposure, 100 μl aliquots were diluted 50% with 0.85% saline and plated onto potato dextrose agar plates. The aliquots were allowed to dry and then were streaked to remove the yeast from the compound. The plates were incubated at 35° C. for 24 hours. Colony counts were taken and were compared to initial inoculum. The same test was done treating the four Candida species with chlorhexidine gluconate at concentrations ranging from 0.015-0.12%. Chlorhexidine gluconate at concentration 0.12% is commonly prescribed to patients with oral disease."}, "[2]": {"tested_on": "non-albicans isolates", "settings": "out of 100 non-albicans isolates from HIV patients with thrush; cited from earlier work"}},
  "data": [
    {"smiles": "N=C(NCCCCCCNC(=N)NC(=N)Nc1ccc(Cl)cc1)NC(=N)Nc1ccc(Cl)cc1.O=C(O)[C@H](O)[C@@H](O)[C@H](O)[C@H](O)CO.O=C(O)[C@H](O)[C@@H](O)[C@H](O)[C@H](O)CO", "note": "[chlorhexidine gluconate, Chlorhexidine gluconate]", "values": [
      {"measurement": "Time-kill result in words (colony count)", "setting": "[1]", "result": "did not reduce the colony count"}
    ]},
    {"smiles": "OC(Cn1cncn1)(Cn1cncn1)c1ccc(F)cc1F", "note": "[fluconazole]", "values": [
      {"measurement": "Number of isolates resistant", "setting": "[2]", "result": 88}
    ]}
  ]
}
